Columns and labels:
human NR1/NR2B = human NR1/NR2B (Homo sapiens (Human), UniProt Q05586+Q13224); experiment: NR2B antagonist activity, Fluo-4 calcium influx assay in HEK293 cells; type: cell-based; conditions: hNR2B IC50, HEK293 cells expressing NR1/NR2B; glutamate 100 μM, glycine 50 μM
Description: (§1) Activation of the NR2A or NR2B subtype of NMDA receptor with glutamate as an agonist and glycine co-agonist on these cells results in calcium influx, which can be monitored with fluorescent indicator Fluo-4.
(§2) For experiments, the cells were seeded onto poly-D-lysine-coated 96-well black plates with clear bottom (Corning) at a density of ˜50,000 cells/well. After overnight culture, the growth medium was removed from the wells and the cells were incubated at 37° C. for 60 min in Hanks buffer containing 4 μM fluo-4-AM (Invitrogen) and 0.1% bovine serum albumin (BSA). After dye-loading, the cells were washed three times with Hanks buffer and incubated for 10 min at room temperature with various concentrations of test compounds prepared in Hanks buffer with 0.1% BSA. The cell plates were placed onto FDSS μCell fluorescence reader (Hamamatsu). After 20 sec reading of background fluorescence, agonist glutamate at final 100 μM and co-agonist glycine at final 50 μM were added to the cells to activate the receptor, and the resulting fluorescence changes were recorded and quantified. Based on the changes in fluorescence intensity, the pharmacological effect of test compounds were analyzed and the IC50 values derived from a non-linear least squares fitting of the concentration-dependent response to a standard logistic equation using Prism (Graphpad, Inc): Amplitude=Max Amplitude/(1+([…])^n).

human NR1/NR2A = human NR1/NR2A (Homo sapiens (Human), UniProt Q05586+Q12879); experiment: NR2A antagonist activity, Fluo-4 calcium influx assay in HEK293 cells; type: cell-based
Description: as §1, §2

hERG channel = hERG channel (Homo sapiens (Human), UniProt Q12809)
mice = experiment: Forced swim test (FST); type: in vivo; conditions: male mice, intraperitoneal; imipramine 32 mg/kg IP
Description: Procedure. Male mice (strain NLMN) weighing 25-35 g were used for testing. All animals were housed in a temperature (22-24° C.) and humidity (50-60%) controlled environment with free access to food and water on a 12-hour light-dark cycle. Test compounds were dissolved in 0.5% dimethylsulfoxide, 4% hydroxypropyl-β-cyclodextrin water to generate the appropriate dosing solution. Drugs were administered by intraperitoneal injection at a dose volume of 10 mL/kg. Testing was initiated 20-60 minutes after dosing. […] Mice were placed in a white plastic cylinder 20 cm high with a diameter of 21 cm containing 10 cm of water at 25±2° C. The mice were videotaped for 6 minutes, and the last 4 minutes of video were analyzed by a blinded observer off-line. The observer judged the animal to be immobile when it ceased all activity (struggling, swimming, jumping etc.) and floated passively atop the water. The amount of time each animal spent in the immobile state was recorded and used for statistical analysis of compound effect. Group differences were evaluated by student's t-test or one-way ANOVA followed by post-hoc Dunnett's test.

hERG channel, sequence (Q12809 whole entry): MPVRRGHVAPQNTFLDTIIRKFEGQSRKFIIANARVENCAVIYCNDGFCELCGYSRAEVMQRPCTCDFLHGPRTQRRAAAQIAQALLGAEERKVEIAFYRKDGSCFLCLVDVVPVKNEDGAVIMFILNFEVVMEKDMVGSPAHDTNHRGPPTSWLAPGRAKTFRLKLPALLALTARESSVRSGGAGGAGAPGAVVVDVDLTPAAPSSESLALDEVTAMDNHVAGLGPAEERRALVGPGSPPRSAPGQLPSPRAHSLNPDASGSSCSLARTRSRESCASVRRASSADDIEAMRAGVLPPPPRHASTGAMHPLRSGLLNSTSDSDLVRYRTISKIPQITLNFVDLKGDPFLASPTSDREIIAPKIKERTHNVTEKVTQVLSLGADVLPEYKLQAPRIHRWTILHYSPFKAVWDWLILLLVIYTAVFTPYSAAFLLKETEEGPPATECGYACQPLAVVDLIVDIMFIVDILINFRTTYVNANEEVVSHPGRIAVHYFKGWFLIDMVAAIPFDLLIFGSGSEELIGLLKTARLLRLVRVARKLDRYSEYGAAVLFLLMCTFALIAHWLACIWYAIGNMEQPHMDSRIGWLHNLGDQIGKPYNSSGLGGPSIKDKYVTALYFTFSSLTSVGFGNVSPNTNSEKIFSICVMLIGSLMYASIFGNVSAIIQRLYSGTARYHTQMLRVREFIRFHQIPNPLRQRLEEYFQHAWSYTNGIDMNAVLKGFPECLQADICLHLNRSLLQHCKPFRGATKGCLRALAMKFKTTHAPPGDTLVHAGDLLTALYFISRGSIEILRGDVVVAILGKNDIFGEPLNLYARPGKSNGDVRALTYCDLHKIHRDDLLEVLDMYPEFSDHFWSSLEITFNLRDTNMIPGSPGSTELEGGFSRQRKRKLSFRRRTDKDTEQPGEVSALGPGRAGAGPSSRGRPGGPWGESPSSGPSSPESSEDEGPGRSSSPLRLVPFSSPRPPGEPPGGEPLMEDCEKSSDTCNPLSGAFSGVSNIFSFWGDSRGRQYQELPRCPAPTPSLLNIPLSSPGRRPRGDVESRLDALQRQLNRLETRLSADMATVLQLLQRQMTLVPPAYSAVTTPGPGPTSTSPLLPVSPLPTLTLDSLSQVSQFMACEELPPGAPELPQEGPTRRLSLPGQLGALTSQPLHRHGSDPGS
human NR1/NR2B, sequence (Q13224 27-1484, other chains not shown): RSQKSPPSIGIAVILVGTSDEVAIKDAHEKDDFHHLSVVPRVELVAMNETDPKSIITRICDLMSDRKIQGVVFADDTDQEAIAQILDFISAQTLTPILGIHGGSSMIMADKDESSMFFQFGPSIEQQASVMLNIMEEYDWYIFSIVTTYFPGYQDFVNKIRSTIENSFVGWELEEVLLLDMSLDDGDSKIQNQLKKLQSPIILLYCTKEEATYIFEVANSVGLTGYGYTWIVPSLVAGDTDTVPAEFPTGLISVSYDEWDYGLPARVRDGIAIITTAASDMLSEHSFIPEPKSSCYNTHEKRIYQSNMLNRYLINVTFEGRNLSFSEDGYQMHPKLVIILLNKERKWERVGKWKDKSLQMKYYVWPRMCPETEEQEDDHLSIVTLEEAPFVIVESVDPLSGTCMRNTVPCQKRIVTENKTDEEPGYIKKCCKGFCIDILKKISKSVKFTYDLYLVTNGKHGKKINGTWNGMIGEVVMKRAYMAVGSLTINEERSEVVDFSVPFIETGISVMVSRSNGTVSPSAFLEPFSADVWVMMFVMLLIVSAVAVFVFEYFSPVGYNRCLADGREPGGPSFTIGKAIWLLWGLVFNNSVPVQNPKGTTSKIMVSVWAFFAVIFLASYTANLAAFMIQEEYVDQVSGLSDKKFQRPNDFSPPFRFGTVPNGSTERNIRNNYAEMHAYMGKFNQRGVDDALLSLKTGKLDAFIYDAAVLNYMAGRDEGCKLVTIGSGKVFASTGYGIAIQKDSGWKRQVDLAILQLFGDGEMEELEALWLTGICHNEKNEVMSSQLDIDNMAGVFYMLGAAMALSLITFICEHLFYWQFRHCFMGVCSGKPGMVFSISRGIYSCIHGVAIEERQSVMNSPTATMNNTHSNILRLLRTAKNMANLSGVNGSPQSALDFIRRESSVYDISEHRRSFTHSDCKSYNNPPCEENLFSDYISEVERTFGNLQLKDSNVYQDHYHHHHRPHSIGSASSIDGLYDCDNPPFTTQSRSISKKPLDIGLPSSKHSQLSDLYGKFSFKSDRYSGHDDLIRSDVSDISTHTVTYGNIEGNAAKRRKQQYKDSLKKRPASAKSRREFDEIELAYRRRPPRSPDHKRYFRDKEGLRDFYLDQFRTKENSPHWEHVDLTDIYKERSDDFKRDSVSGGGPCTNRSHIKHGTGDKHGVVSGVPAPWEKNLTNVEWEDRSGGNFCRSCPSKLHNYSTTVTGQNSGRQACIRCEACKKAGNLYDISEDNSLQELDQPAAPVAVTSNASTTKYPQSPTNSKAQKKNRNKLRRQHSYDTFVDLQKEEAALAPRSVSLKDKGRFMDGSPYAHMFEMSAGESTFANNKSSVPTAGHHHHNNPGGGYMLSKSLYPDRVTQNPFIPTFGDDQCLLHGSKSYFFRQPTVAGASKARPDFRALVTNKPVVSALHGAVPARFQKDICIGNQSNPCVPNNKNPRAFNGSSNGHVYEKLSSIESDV
human NR1/NR2A, sequence (Q12879 23-1464, other chains not shown): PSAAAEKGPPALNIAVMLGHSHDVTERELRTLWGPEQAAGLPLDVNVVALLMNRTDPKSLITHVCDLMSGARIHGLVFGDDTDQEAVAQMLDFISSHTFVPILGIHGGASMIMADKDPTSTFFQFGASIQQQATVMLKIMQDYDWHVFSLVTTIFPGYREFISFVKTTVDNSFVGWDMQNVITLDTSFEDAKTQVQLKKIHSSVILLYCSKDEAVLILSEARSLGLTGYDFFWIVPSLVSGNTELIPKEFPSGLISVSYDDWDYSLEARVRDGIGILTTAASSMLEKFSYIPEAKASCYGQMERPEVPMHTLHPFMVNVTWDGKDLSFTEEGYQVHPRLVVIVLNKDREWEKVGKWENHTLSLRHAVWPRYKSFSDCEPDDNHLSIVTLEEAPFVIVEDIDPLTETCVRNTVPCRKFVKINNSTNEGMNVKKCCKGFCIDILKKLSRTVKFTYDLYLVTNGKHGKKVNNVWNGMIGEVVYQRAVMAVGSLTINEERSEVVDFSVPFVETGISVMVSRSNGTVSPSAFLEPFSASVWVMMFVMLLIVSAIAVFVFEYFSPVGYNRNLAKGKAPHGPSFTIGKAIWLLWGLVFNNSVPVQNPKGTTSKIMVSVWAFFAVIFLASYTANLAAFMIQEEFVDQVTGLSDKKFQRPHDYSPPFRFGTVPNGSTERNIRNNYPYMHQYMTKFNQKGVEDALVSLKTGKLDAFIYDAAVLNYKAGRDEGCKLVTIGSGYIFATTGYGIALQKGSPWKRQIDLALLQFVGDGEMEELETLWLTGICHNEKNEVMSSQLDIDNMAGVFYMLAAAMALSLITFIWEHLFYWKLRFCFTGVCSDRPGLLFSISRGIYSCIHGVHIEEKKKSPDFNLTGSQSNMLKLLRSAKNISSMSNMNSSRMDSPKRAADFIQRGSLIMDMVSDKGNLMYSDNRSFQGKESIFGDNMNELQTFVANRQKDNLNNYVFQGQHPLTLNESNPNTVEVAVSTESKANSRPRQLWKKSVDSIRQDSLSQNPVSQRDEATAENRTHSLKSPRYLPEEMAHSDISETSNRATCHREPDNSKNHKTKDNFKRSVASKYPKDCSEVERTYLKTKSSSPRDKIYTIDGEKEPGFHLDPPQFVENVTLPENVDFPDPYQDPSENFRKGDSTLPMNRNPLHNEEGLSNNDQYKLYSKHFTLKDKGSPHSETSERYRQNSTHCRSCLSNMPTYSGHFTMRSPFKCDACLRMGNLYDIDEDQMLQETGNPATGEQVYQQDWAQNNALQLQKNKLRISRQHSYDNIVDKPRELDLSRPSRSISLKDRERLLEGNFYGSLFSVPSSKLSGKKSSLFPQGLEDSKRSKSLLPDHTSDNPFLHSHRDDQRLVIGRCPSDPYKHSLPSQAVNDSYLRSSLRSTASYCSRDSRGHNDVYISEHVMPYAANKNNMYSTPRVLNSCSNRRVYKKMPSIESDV

SMILES	IC50 (human NR1/NR2B) [nM]	IC50 (human NR1/NR2A) [nM]	hERG @ 10 μM (hERG channel) [%]	antidepressant activity (immobility time) (mice)
CN(c1ncnc2[nH]ncc12)C1CCN(CCc2ccc(C(F)(F)F)cc2)CC1(F)F (racemic) [C-1.33]	103	> 10000	59	–
CN(C)CCCN1c2ccccc2CCc2ccccc21 [imipramine]	–	–	–	showed the expected antidepressant activity

— patent US10221182B2, “3,3-difluoro-piperidine derivatives as NR2B NMDA receptor antagonists” (Rugen Holdings (Cayman) Limited, priority 2015, dated 2019)
